This is an account of results in patent US5958966A, “Treatment of aberrant cellular states with biomodulators” (University of New Mexico, priority 1995, dated 1999).

Entries after “also recorded” stand apart in the source; their conditions may differ.

In one assay the test system is B16 melanoma cells. The assay can be described thus: effect of swainsonine on cytotoxic T-lymphocytes (51Cr release). Type of assay: in vivo, mouse. The procedure:
The cytotoxicity assay used two targets: YAC-1, for natural killer cell targets and B16 melanoma cells, for cytolytic T-cell targets. The YAC-1 cells were labelled in GKN (ucose/KCl/NaCl) with ^51 Cr (NEN-DuPont, 400-1200 Ci/g activity) for 60 min. The B16's were ^51 Cr labelled in complete α-MEM media for 60 min. Both targets were washed twice through whole fetal calf serum to remove damaged and dead cells and then suspended in complete RPMI at a final concentration of 1×10^5 cells/ml. The spleen cells (effector cells) were plated in round bottom 96 well trays starting at 1×10^7 cells/ml (100 μl/well), using a halving dilution that provided splenocyte concentrations of 10^6, 5×10^5, 2.5×10^5, 1.25×10^5, 6.25×10^4 and 3.125×10^4, all done in triplicate. The target cells were added at 1×10^4 cell/100 μl/well; this gave an effector:target cell ratio ranging from 100:1 to 3:1. Controls included spontaneous ^51 Cr release and 100% lysis (10% triton treatment). The trays were centrifuged at 50×g for 5 min. and incubated in a CO2 incubator at 37° C. for 16 hours. The trays were spun again at 50×g for 5 minutes and 100 μl removed from each well for counting. A Packard gamma counter (United Technologies) was used for counting. Each sample was counted for 1 min. giving a 5% counting efficiency. The following equation was used to determine percent lysis.
The effector:target ratios were then plotted against percent lysis and a simple line equation was determined for each treatment group. The slope of this line was then used to determine the total effector kill efficiency.
The ^51 Cr cytotoxicity assay was also run with the B16 melanoma cells as the target and the splenocytes from the same mice as above as the effector cells. The baseline mice (no tumor/no Sw) and the control mice (tumor/no SW) had very similar line shapes and slopes. There were significant differences (p=0.03) between the presence and absence of tumor (see Table in FIG. 68).

The next assay concerns solid tumor models. The settings on record: Dennis 1986, 1989, 1990; cited from earlier work.
A further assay concerns lymphoid IL-2R / LAK. The note with it: Bowlin et al. and further work; listed as Sw; cited from earlier work.
For a further assay, the system named is canine glioma (CG) cells. The assay can be described thus: cell surface oligosaccharide display of canine glioma cells (lectin binding, Scatchard, Gibb's Free Energy). The settings on record: control 14.9 kcal. Type of assay: cell-based. The source says:
Taken together these affinity differences account for almost 10 kcal of additional binding energy retrievable from interactions in the case of the IMR-90s which is unavailable to the CGs. […] This treatment regimen results in an increase in the Tg of the cells as well as changes in the proton linewidth of unfrozen water (shown below). […] This display more closely resembles that of the growth regulated IMR-90s. It should be noted that the actual lines on these figures are visual estimates however, the data in the boxes are calculated values. It is these values that are used to estimate the GFE for comparison purposes.
The cell surface oligosaccharide display was assessed by methods developed previously. In brief, cells from a sub-culturing were aliquotted into 96 well trays at 5×10^5 cells per ml, 100 μL aliquots. After 16 hours of culture the cells were washed, fixed, and blocked with 0.1% BSA/PBS. Optimal lectin concentrations (5 μg/ml)were used to give 80 to 90% saturation of the available sites. Three carbohydrate ligands at 10 μg concentrations in triplicate or quadruplicate were then used to prepare competition curves for the lectin binding. The Bound over Free (B/F) ratio was calculated and the Ligand microprocessor program was used to determine the optimal fit of the data to a polynomial generated model. The Gibb's Free Energy (GFE) was calculated from the Scatchard data on the competition assay by the following equation: GFE=-RT 1n Kequit. The proton NMR linewidth measurements were conducted as described previously.

Take `O[C@H]1[C@H]2[C@H](O)CCCN2C[C@H]1O` [Swainsonine, swainsonine]: in the assay on B16 melanoma cells (0.1 μg Sw for 3 weeks, listed as Sw), the “CTL activity in words” value is “greater than that of the control and of the 0.01 μg treated mice; also recorded: significant increase in the CTL activity”. Also, in the assay with B16 melanoma cells (0.1 μg Sw, day 7 tumor), the “increase in line slope above baseline” value worked out at 228%. Besides, the “increase in line slope over control mice with day 7 tumor” value in the assay on B16 melanoma cells (0.1 μg Sw, day 7 tumor) came out at 127%. Moreover, in the assay with solid tumor models, the “growth in other solid tumor models” value is “delay growth in several other solid tumor models”. Further, the “effect on IL-2R expression, IL-2 induced proliferation and LAK induction” value with lymphoid IL-2R / LAK is “augmented lymphoid IL-2R expression and IL-2 induced proliferation following mitogenic stimulation; also recorded: augmented the LAK induction at normally sub-optimal stimulation doses”. Further, the “Gibb's Free Energy” value in the assay on canine glioma (CG) cells (2 cycles) worked out at 15.2 kcal; in the assay with canine glioma (CG) cells (4 cycles), 20.5 kcal; in the assay with canine glioma (CG) cells (7 cycles) it was 21.9 kcal.
